# From paper PMC5690597, “Suppression and resolution of autoimmune arthritis by rhesus θ-defensin-1, an immunomodulatory macrocyclic peptide” (PLoS ONE, 2017)
# Bridge positions count the residues as written; N and C are the ends. Peptide text beside a SMILES is read from it.
# What was measured:
# ADAM10 = ADAM10 (Homo sapiens, UniProt O14672); assay: biochemical
# Experimental: (§1) RTD-1 was analyzed for enzymatic inhibition against zinc metalloproteases ADAM17, ADAM10, matrix metalloproteases (MMPs) 1, 2, 3, 8, 9, 13, and 14, and cysteine cathepsins (Cats) B, C, H, K, L, S, and V (Table 1). ADAM10 and ADAM17 activities were measured by release of fluorogenic peptides cleaved from pro-TNF (R&D Systems, Minneapolis, MN). ADAM10 was diluted to 0.05 μg/ml and ADAM17 to 0.1 μg/ml with 25 mM TRIS, 2.5 μM ZnCl2, 0.005% Brij35, pH 9.0 and incubated with 0 to 3 μg/ml RTD-1 dissolved in 0.01% HOAc. Assay was initiated by addition of substrate (10 μM final) and enzymatic activity measured at 37°C (ADAM10) or 22°C (ADAM17) every 30 seconds for 1 h in a SpectraMax M5e fluorometer (Molecular Devices, Sunnyvale, CA) with 320 nm excitation and 405 nm emission.
# (§2) Inhibition of MMPs by RTD-1 was performed as described, incubating each enzyme with 0–100 μg/ml of RTD-1. IC50 values were calculated by GraphPad Prism 5.01 (GraphPad Software, San Diego, CA) utilizing a non-linear curve fit of log [inhibitor] versus response with variable slope.
# ADAM17 = ADAM17 (Homo sapiens, UniProt P78536); assay: biochemical
# Experimental: as §1, §2
# Cathepsin B = Cathepsin B (Homo sapiens, UniProt P07858); assay: biochemical
# Experimental: (§3) RTD-1 inhibition of Cat B (BPS Bioscience, San Diego, CA) and Cats C, H, K, L, S, and V (R & D Systems) was analyzed in a 96 well format with enzyme-specific substrates per manufacturer’s instructions and as described in Table 1. The activity of each enzyme was determined in the presence of 0 to 50 μg/ml RTD-1.
# as §2
# Cathepsin C = Cathepsin C (Homo sapiens, UniProt P53634); assay: biochemical
# Experimental: as §3, §2
# Cathepsin H = Cathepsin H (Homo sapiens, UniProt P09668); assay: biochemical
# Experimental: as §3, §2
# Cathepsin S = Cathepsin S (Homo sapiens, UniProt P25774); assay: biochemical
# Experimental: as §3, §2
# Cathepsin V = Cathepsin V (Homo sapiens, UniProt O60911); assay: biochemical
# Experimental: as §3, §2
# [1] = test system: DA rats with advanced PIA; assay: Severe (advanced) pristane-induced arthritis (AS ≥ 12); type: in vivo, rat
# Experimental: Female DA/OlaHsd (D blood group allele and Agouti, also known as Dark Agouti), rats were obtained from Harlan Laboratories (Indianapolis, IN). Animals were allowed to acclimate for 48–72 hours prior to experimental use. Animals were fed standard chow ad lib during a 12-hour day/night cycle. PIA was induced in 5–7 week old animals (90–100 gm) by intradermal injection of 250 μl pristane (Sigma) divided into 3–5 sites at the base of the tail. Animals were monitored daily and disease severity of each limb was scored 0–4 using the method of Brand et al.. The severity scores for all limbs of individual animals were totaled to give an individual’s arthritis severity score (AS) ranging from zero for normal animals to maximum disease score of sixteen. Disease severity was assessed by at least two scorers and the inter-rater agreement (kappa) value was 0.806 as determined using MedCalc Statistical Software version 14.8.1 (MedCalc Software, Ostend, Belgium). In three separate trials, treatment was also blinded to scorers. There was no statistical difference between blinded and unblinded scoring of any treatment cohort. Treatment with saline (vehicle), RTD-1, or anti-arthritic agents was randomized and initiated when an animal first presented with an AS of 3 or more. […]
# anti-RTD-1 Ig = assay: RTD-1 immunogenicity analysis (dot immunoblot); type: in vivo, DA and Sprague Dawley rats; details: 8–42 s.c. injections of 5 mg/kg; serum or plasma
# Experimental: Adult DA or Sprague-Dawley rats were challenged s.c. with 5 mg/kg RTD-1 every day (15–42 injections), or every other day (8 injections). Several animals were boosted 2 months later, prior to serum or plasma collection. Immune responses were analyzed by dot blot on nitrocellulose membranes as described in legend to the figure.
# joint IL-1β = assay: Joint tissue cytokine analysis (IL-1β ELISA); type: in vivo, rat; details: 5 mg/kg s.c. once a day for four days, PIA rats AS ≥ 3; ELISA of joint extract; P = 0.0054
# Experimental: Saline (control) and RTD-1 (5 mg/kg, s.c., qd) treated PIA rats were euthanized 4 days after disease onset (AS ≥ 3). The ankle joints and feet were snap frozen in liquid N2 and pulverized with mortar and pestle as described. One gram of tissue powder was extracted with 5 ml of ice cold 10 mM sodium phosphate, 150 mM NaCl, pH 7.4 (PBS) containing protease inhibitor tablets (cOmplete ULTRA with EDTA; Roche Diagnostics GmbH, Mannheim, Germany). Samples were vortexed for 30 seconds and extracts clarified by centrifugation. Supernatant IL-1β was quantified by ELISA (Life Technologies, Grand Island, NY).
# DA-PIA-FLS = assay: FLS proliferation (CyQuant); type: cell-based, DA rat; details: RTD-1 0–30 μg/ml; 24 or 48 h in culture; DNA staining
# Experimental: Fibroblast-like synoviocytes (FLS) were isolated by enzymatic digestion of the synovial tissue from DA rats with PIA as previously described. Cells were washed and suspended in DMEM supplemented with 10% fetal bovine serum (Gibco, Grand Island, NY), 30 mg/ml L-glutamine (Sigma), 250 μg/ml amphotericin B (Sigma), and […] gentamicin (Gibco). After overnight culture, non-adherent cells were removed and adherent cells were cultured to approximately 70–90% confluence and passaged following detachment with 0.25% trypsin-EDTA for 3 min at 37°C. All experiments were performed with FLS after at least four passages.
# All assays were performed with ≥ 7 replicates.
# FLS = details: RTD-1 0–30 μg/ml; all samples; LDH release
# Experimental: FLS were seeded at 3 × 10^3 cells/well in a 96-well TC treated plate (Greiner). Cells were allowed to adhere for 18 h and medium was replaced prior to addition of peptide or vehicle. RTD-1 was added to wells at final concentrations of 0–30 μg/ml in culture medium and incubated for 0, 24, or 48 h at 37°C in 5% CO2. FLS cell number was determined by DNA staining using CyQuant Cell Proliferation Assay Kit (Invitrogen) per manufacturer’s instructions. Cellular toxicity was determined by measuring the release of lactate dehydrogenase (LDH) using a CytoTox 96 Cytotoxicity Assay (Promega Bio Sciences, San Luis Obispo, CA) in FLS supernatants. All assays were performed with ≥ 7 replicates.
# [2] = no method or data given
# [3] = administered subcutaneously; this study and ref 9
# [4] = cited from earlier work
# Chain of ADAM17 (P78536 215-824, species assumed): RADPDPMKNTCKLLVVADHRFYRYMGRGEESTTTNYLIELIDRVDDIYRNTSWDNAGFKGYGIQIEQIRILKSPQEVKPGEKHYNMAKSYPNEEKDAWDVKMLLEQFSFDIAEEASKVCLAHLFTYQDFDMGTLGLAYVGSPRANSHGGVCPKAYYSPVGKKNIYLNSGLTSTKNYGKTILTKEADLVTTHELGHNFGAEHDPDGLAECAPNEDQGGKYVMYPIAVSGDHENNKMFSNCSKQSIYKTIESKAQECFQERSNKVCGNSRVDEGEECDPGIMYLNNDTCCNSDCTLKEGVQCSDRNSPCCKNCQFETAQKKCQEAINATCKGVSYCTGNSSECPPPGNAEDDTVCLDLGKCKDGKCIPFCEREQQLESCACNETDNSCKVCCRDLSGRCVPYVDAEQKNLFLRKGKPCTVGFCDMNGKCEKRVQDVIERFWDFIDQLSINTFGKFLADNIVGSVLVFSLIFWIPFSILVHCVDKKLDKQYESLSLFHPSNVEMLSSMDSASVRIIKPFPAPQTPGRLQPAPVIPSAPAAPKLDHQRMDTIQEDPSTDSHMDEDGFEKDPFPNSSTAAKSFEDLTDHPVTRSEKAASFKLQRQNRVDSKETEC
# Chain of Cathepsin C (P53634 25-463, species assumed): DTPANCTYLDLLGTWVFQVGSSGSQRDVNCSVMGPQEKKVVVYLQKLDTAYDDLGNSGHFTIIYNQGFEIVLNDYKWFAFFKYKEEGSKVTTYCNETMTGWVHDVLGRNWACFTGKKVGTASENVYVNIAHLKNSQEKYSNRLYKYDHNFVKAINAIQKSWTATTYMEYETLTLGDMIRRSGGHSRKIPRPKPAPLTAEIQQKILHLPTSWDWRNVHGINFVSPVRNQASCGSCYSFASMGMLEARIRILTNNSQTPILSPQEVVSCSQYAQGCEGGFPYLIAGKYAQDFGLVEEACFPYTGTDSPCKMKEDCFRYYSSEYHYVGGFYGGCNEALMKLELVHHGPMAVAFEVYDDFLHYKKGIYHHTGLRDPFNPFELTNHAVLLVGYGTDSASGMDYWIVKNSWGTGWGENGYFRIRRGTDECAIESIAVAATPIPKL
# Chain of Cathepsin H (P09668 98-335, species assumed): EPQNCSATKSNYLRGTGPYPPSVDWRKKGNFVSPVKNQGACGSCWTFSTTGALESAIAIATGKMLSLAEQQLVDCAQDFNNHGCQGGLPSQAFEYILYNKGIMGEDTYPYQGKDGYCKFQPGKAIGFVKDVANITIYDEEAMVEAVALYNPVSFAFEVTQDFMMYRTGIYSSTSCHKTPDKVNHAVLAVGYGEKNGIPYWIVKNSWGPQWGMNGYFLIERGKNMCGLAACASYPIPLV
# Chain of Cathepsin S (P25774 115-331, species assumed): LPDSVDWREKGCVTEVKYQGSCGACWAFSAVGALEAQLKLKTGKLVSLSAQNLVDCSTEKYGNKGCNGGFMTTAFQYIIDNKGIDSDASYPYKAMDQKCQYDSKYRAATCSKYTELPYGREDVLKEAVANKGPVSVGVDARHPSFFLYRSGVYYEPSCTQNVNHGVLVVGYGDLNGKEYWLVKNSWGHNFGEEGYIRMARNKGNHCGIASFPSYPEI
# Chain of Cathepsin V (O60911 114-334): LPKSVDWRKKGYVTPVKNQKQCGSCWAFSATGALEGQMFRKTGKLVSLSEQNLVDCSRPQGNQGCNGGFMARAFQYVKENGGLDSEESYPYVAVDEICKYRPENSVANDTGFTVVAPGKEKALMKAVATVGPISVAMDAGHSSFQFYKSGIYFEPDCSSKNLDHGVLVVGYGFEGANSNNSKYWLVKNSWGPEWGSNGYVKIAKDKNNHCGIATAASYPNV
# Chain of ADAM10 (O14672 214-748, species assumed): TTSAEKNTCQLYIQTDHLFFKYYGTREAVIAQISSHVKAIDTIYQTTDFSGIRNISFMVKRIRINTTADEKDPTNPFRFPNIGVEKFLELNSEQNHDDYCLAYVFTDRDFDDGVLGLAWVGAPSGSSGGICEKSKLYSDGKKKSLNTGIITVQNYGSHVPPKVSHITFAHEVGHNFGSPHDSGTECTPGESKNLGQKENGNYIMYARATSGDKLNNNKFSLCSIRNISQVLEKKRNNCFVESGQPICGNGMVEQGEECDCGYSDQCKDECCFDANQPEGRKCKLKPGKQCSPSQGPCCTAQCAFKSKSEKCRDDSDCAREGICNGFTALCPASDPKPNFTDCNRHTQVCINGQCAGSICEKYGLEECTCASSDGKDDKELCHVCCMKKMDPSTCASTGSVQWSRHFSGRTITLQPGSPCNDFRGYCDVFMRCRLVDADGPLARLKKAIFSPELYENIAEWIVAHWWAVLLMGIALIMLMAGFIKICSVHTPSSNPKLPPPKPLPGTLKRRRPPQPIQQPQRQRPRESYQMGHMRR
smiles,measurement,setting,value
"CC[C@H](C)[C@@H]1NC(=O)[C@@H]2CSSC[C@H](NC(=O)[C@H](CCCNC(=N)N)NC(=O)[C@@H]3CSSC[C@H](NC1=O)C(=O)N[C@@H]([C@@H](C)O)C(=O)N[C@@H](CCCNC(=N)N)C(=O)NCC(=O)N[C@@H](Cc1ccccc1)C(=O)N3)C(=O)N[C@@H](CC(C)C)C(=O)N[C@H]1CSSC[C@H](NC(=O)[C@H](C(C)C)NC(=O)CNC(=O)[C@H](CCCNC(=N)N)NC(=O)[C@H](CCCNC(=N)N)NC1=O)C(=O)N[C@@H](CCCNC(=N)N)C(=O)N2 [RTD-1, rhesus θ-defensin 1] (cyclo(GFCRCLCRRGVCRCICTR); disulfide 3-16, 5-14, 7-12)",IC50,ADAM10,0.45 ± 0.2 µM
same,IC50,ADAM17,0.11 ± 0.04 µM
same,IC50,Cathepsin B,1 ± 0.1 µM
same,IC50,Cathepsin C,3.7 ± 0.6 µM
same,IC50,Cathepsin H,> 50 µM
same,IC50,Cathepsin S,> 50 µM
same,IC50,Cathepsin V,1.8 ± 0.6 µM
same,resolution of clinical disease by day 15,"[1]; 5 mg/kg s.c. daily until AS = 0, AS ≥ 12 before treatment",complete resolution of clinical disease in all RTD-1 treated rats
same,RTD-1 treated animals that relapsed with joint disease,[1]; after treatment stop and a disease-free interval,three of five
same,humoral response (anti-RTD-1 Ig) by dot immunoblot,anti-RTD-1 Ig,No anti-RTD-1 Ig was detected
same,average reduction of joint IL-1β vs vehicle,joint IL-1β,44%
same,effect on FLS proliferation,DA-PIA-FLS,dose-dependently suppressed FLS proliferation
same,cell viability in proliferation assay,FLS,≥ 98%
same,stability in rat plasma,[2],highly stable
same,tolerability,[3],well tolerated
same,stability in human plasma,[4],highly stable
